Data taken from patent US20090088380A1, “GHRH ANALOGS AND THERAPEUTIC USES THEREOF” (priority 2007, published 2009).
Non-standard residues stand in square brackets, D forms with d. Residues, ends and D or L forms follow the SMILES beside them.

What was measured:
in vivo = settings: Sprague-Dawley, rat
Description: No mortality, adverse clinical sign, effects on body weight, food consumption, opthalmology, haematology, coagulation, clinical chemistry, urinalysis, organ weights, macroscopic or microscopic observations were noted following the dosing or recovery periods. The no adverse effect level for this study was determined to be 3 mg/kg body weight.

Canine Growth Hormone = assay: In vivo GH secretion in a male Beagle dog, escalating SC doses, RIA
From the text: In order to assess such use of the GHRH analogs, the following experiments were undertaken. […] The above GHRH analog is a variation of a synthetic acetate salt of an amidated synthetic 29-amino acid peptide that corresponds to the amino-terminal segment of the naturally-occurring human growth hormone—releasing hormone (GHRH) with four amino acid substitutions in positions 2, 10, 15, and 22.
Prior to administration, all dosing formulations were filtered using a 0.22 μm filter to ensure sterility. […] Dosing started at approximately the same time each day, commencing at 9:00 am ±30 minutes.
For pharmacodynamic investigations, blood samples (approximately 1.0 ml) were collected from the dog on each treatment day via a jugular venipuncture at the following time points: pre-dose, 7, 15, 22, 30, 45, and 60 minutes post dosing. All blood samples were collected into potassium EDTA tubes and centrifuged under refrigeration (2 to 8° C., 1500 g for 10 minutes).
Plasma GH was determined by Linco Diagnostic Services using their own kit. Linco's Porcine/Canine Growth Hormone radioimmunoassay kit (RIA) (PGH-46HK) has been developed to quantitate Growth Hormone in plasma, serum, and tissue culture media. It is a completely homologous assay since the antibody was raised against recombinant Porcine Growth Hormone and both the standard and tracer are prepared with recombinant Porcine Growth Hormone. Since the amino acid sequences of Porcine Growth Hormone and Canine Growth Hormone are identical, this assay developed for Porcine Growth Hormone measures Canine Growth Hormone levels with equal efficiency. All components are included (standards, antibody, tracer, quality controls, precipitating reagents and buffer) necessary to complete a RIA. The assay was conducted under the following conditions: overnight; equilibrium incubation at room temperature; sample volume: 100 μl serum, plasma, or cell culture media.

[1] = test system: malnourished subjects with CKD; assay: Phase II CKD: anthropometry; format: in vivo, human; settings: ITT
Description: Height (cm) was measured only at the screening visit. Anthrompometry was measured at every visit from baseline to follow-up. Anthropometric measurements included weight, skinfold thicknesses and arm circumference. Weight (kg) was measured using a high performance scale. Subjects were asked to stand on the scale with minimal clothing, no shoes, and with even weight on both feet. Skinfold thickness (mm) was measured by using Harpenden Skinfold Callipers at 4 sites: biceps, triceps, suprailiacal and subscapular. Arm circumference (cm) was measured using a tape measure that is flexible, inelastic and metric. The site measured was marked, and the tape was not to be too tight or too loose, and to lie flat on the skin, and be horizontal. Bioimpedance measurements were made to measure body composition at every visit from baseline to Day 28. The bioimpedance scale (RJL Systems) was used. Resistance, reactance and the phase angle were recorded.

[2] = test system: malnourished subjects with CKD; assay: Phase II CKD: vital signs; format: in vivo, human; settings: for Diastolic blood pressure: mean (SD) / Heart rate: mean (SD) / Systolic blood pressure: mean (SD): Safety Analysis Set
From the text: Mean systolic blood pressure was lower at Day 28 compared with baseline in the GHRH(1-29)NH2 synthetic analog group but higher compared with baseline in the placebo group (Table 37). […] Similarly, mean diastolic blood pressure was lower at Day 28 compared with baseline in the GHRH(1-29)NH2 synthetic analog group but this was not part of a trend.

## CC[C@H](C)[C@H](NC(=O)[C@H](C)NC(=O)[C@H](CC(=O)O)NC(=O)[C@@H](C)NC(=O)[C@@H](N)Cc1ccc(O)cc1)C(=O)N[C@@H](Cc1ccccc1)C(=O)N[C@H](C(=O)N[C@@H](CC(N)=O)C(=O)N[C@@H](CO)C(=O)N[C@H](Cc1ccc(O)cc1)C(=O)N[C@@H](CCCNC(=N)N)C(=O)N[C@@H](CCCCN)C(=O)N[C@H](C(=O)N[C@@H](CC(C)C)C(=O)N[C@H](C)C(=O)N[C@@H](CCC(N)=O)C(=O)N[C@@H](CC(C)C)C(=O)N[C@@H](CO)C(=O)N[C@@H](C)C(=O)N[C@@H](CCCNC(=N)N)C(=O)N[C@@H](CCCCN)C(=O)N[C@@H](CCCCN)C(=O)N[C@@H](CC(C)C)C(=O)N[C@@H](CCC(N)=O)C(=O)N[C@@H](CC(=O)O)C(=O)N[C@H](C(=O)N[C@@H](CCSC)C(=O)N[C@@H](CO)C(=O)N[C@@H](CCCNC(=N)N)C(N)=O)[C@@H](C)CC)C(C)C)[C@@H](C)O [GHRH analog #5, [D-Ala^2, D-Tyr^10, D-Ala^15, Lys^22] hGHRH(1-29)-NH2] (H-Y[dA]DAIFTNS[dY]RKVL[dA]QLSARKKLQDIMSR-NH2)
In vivo
  NOAEL at 672 h: 3 mg/kg
Canine Growth Hormone; 0.01 mg/kg BW SC, 0 min
  Canine Growth Hormone: 1.99 ng/mL
Canine Growth Hormone; 0.01 mg/kg BW SC, 7 min
  Canine Growth Hormone: 1.99 ng/mL
Canine Growth Hormone; 0.01 mg/kg BW SC, 15 min
  Canine Growth Hormone: 5 ng/mL
Canine Growth Hormone; 0.01 mg/kg BW SC, 22 min
  Canine Growth Hormone: 4 ng/mL
Canine Growth Hormone; 0.01 mg/kg BW SC, 30 min
  Canine Growth Hormone: 11 ng/mL
Canine Growth Hormone; 0.01 mg/kg BW SC, 45 min
  Canine Growth Hormone: 17 ng/mL
Canine Growth Hormone; 0.01 mg/kg BW SC, 60 min
  Canine Growth Hormone: 11 ng/mL
Canine Growth Hormone; 0.1 mg/kg BW SC, 0 min
  Canine Growth Hormone: 1.99 ng/mL
Canine Growth Hormone; 0.1 mg/kg BW SC, 7 min
  Canine Growth Hormone: 5 ng/mL
Canine Growth Hormone; 0.1 mg/kg BW SC, 15 min
  Canine Growth Hormone: 9 ng/mL
Canine Growth Hormone; 0.1 mg/kg BW SC, 22 min
  Canine Growth Hormone: 7 ng/mL
Canine Growth Hormone; 0.1 mg/kg BW SC, 30 min
  Canine Growth Hormone: 6 ng/mL
Canine Growth Hormone; 0.1 mg/kg BW SC, 45 min
  Canine Growth Hormone: 5 ng/mL
Canine Growth Hormone; 0.1 mg/kg BW SC, 60 min
  Canine Growth Hormone: 1.99 ng/mL
Canine Growth Hormone; 1 mg/kg BW SC, 0 min
  Canine Growth Hormone: 1.99 ng/mL
Canine Growth Hormone; 1 mg/kg BW SC, 7 min
  Canine Growth Hormone: 4 ng/mL
Canine Growth Hormone; 1 mg/kg BW SC, 15 min
  Canine Growth Hormone: 14 ng/mL
Canine Growth Hormone; 1 mg/kg BW SC, 22 min
  Canine Growth Hormone: 9 ng/mL
Canine Growth Hormone; 1 mg/kg BW SC, 30 min
  Canine Growth Hormone: 19 ng/mL
Canine Growth Hormone; 1 mg/kg BW SC, 45 min
  Canine Growth Hormone: 7 ng/mL
Canine Growth Hormone; 1 mg/kg BW SC, 60 min
  Canine Growth Hormone: 7 ng/mL
Canine Growth Hormone; dog
  Treatment-related clinical signs: No treatment-related clinical signs were observed
Canine Growth Hormone; dog, AUC not measured
  GH response compared with natural hGHRH(1-44)NH2: significantly larger
Canine Growth Hormone; dog, subcutaneous
  GH secretion into peripheral blood, dose dependence: dose-dependent response
Canine Growth Hormone; dogs
  Optimal sc dose: 10 μg/kg body weight
[1]; Baseline
  Arm circumference: mean (SD): 26.35 (5.42) cm
  Body weight: mean (SD): 62.84 (9.98) kg
  Skinfold thickness biceps: median: 5.1 mm
  Skinfold thickness subscapular: median: 8.0 mm
  Skinfold thickness suprailiacal: median: 7.0 mm
  Skinfold thickness triceps: median: 12.0 mm
[1]; Day 28
  Arm circumference: mean (SD): 27.33 (4.81) cm
  Body weight: mean (SD): 63.21 (10.45) kg
  Skinfold thickness biceps: median: 4.1 mm
  Skinfold thickness subscapular: median: 8.6 mm
  Skinfold thickness suprailiacal: median: 7.3 mm
  Skinfold thickness triceps: median: 13.3 mm
[1]; vs placebo
  Arm circumference: adjusted difference: 0.33 cm
  Body weight: adjusted difference: 0.96 kg
  Skinfold thickness triceps: ratio: 1.066
[1]; anthropometry, Baseline
  Fat free mass (kg): mean (SD): 46.64 (9.13) kg
  Fat mass (%): median: 25.4%
  Fat mass (kg): median: 15.8 kg
[1]; anthropometry, Baseline, listed as GHRH(1-29)NH2 synthetic analog
  Fat free mass (kg): mean (SD): 46.64 kg
[1]; anthropometry, Day 28
  Fat free mass (kg): mean (SD): 46.20 (9.16) kg
  Fat mass (%): median: 25.9%
  Fat mass (kg): median: 15.6 kg
[1]; anthropometry, Day 28, listed as GHRH(1-29)NH2 synthetic analog
  Fat free mass (kg): mean (SD): 46.20 kg
[1]; anthropometry, vs placebo
  Fat free mass (kg): adjusted difference: 0.41 kg
[2]; Day 7
  Mean systolic blood pressure: 136.4 mmHg
[2]; Day 14
  Mean systolic blood pressure: 139.9 mmHg
[2]; Day 21
  Mean systolic blood pressure: 143.1 mmHg
[2]; Baseline
  Diastolic blood pressure: mean (SD): 82.7 (10.9) mmHg
  Heart rate: mean (SD): 77.7 (11.1) bpm
  Systolic blood pressure: mean (SD): 144.8 (16.0) mmHg
[2]; Day 28
  Diastolic blood pressure: mean (SD): 76.7 (8.1) mmHg
  Heart rate: mean (SD): 76.4 (9.8) bpm
  Systolic blood pressure: mean (SD): 128.3 (16.5) mmHg
[2]; screening
  Mean systolic blood pressure: 142.0 mmHg
